Laboratory results published in US20160251403A1, “PEPTIDE COMBINATIONS AND USES THEREOF IN TREATING DUST MITE ALLERGY” (ALK-ABELLO A/S, priority 2013, published 2016).
Numbering of substitutions follows the chain as printed. No end group written: not given here.

Tests used:
[1] = target: T1, DPA10103-DPB10401 (Homo sapiens, UniProt P04440+P20036); assay: Competitive MHC class II binding assay, DPA10103-DPB10401
T1 sequence (P20036 29-260): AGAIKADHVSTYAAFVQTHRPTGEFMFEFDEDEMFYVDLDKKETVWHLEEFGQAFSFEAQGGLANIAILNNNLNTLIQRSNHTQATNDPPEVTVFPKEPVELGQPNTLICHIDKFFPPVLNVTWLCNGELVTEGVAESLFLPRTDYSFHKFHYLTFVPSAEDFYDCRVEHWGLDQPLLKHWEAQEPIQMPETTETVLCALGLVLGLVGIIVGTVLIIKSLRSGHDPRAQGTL
T1 sequence (P04440 30-258): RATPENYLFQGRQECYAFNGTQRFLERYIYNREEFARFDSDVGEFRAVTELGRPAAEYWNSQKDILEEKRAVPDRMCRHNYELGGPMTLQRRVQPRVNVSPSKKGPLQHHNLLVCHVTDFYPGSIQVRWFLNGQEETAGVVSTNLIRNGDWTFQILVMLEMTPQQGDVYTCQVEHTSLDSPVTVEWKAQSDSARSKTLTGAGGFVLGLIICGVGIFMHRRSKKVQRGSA
Experimental: (§1) The assay employed is a competitive MHC class II binding assay, wherein each peptide is analyzed for its ability to displace a known control binder from each of the human MHC class II allotypes shown in Table 8. Due to the nature of the competitive assay, the data for each peptide is determined as a ratio of its own IC50 to that of the control peptide.
(§2) Briefly, 0.1-1 nM of radiolabeled peptide was co-incubated at room temperature or 37° C. with purified MHC in the presence of a cocktail of protease inhibitors. Following a two- to four-day incubation, MHC bound radioactivity was determined by capturing MHC/peptide complexes on monoclonal Ab coated Lumitrac 600 plates (Greiner Bio-one, Frickenhausen, Germany), and measuring bound cpm using the TopCount (Packard Instrument Co., Meriden, Conn.) microscintillation counter. In the case of competitive assays, the concentration of peptide yielding 50% inhibition of the binding of the radiolabeled peptide was calculated. Under the conditions utilized, where [label]<[MHC] and IC50≧[MHC], the measured IC50 values are reasonable approximations of the true Kd values (Cheng and Prusoff 1973; Gulukota et al. 1997). Each peptide was tested at six different concentrations covering a 100,000-fold dose range in three or more independent experiments. […]

[2] = system: DQA10401-DQB10402; assay: Competitive MHC class II binding assay, DQA10401-DQB10402; conditions: for IC50: read-out: HLA-DQA10401-DQB10402, positive binding at cutoff 1000 nM
Experimental: as §1
Briefly, 0.1-1 nM of radiolabeled peptide was co-incubated at room temperature or 37° C. with purified MHC in the presence of a cocktail of protease inhibitors. Following a two- to four-day incubation, MHC bound radioactivity was determined by capturing MHC/peptide complexes on monoclonal Ab coated Lumitrac 600 plates (Greiner Bio-one, Frickenhausen, Germany), and measuring bound cpm using the TopCount (Packard Instrument Co., Meriden, Conn.) microscintillation counter. In the case of competitive assays, the concentration of peptide yielding 50% inhibition of the binding of the radiolabeled peptide was calculated. Under the conditions utilized, where [label]<[MHC] and IC50≧[MHC], the measured IC50 values are reasonable approximations of the true Kd values (Cheng and Prusoff 1973; Gulukota et al. 1997). Each peptide was tested at six different concentrations covering a 100,000-fold dose range in three or more independent experiments. As a positive control, the unlabeled version of the radiolabeled probe was also tested in each experiment.

[3] = system: allergen specific T cells; assay: T cell proliferation assay (72 h) with allergen-specific T cell lines from house dust mite allergic donors; % responders; assay type: cell-based, human; conditions: FIGS. 9b, 9c; subset of 22 donors having about 88% worldwide HLA Class II coverage
Experimental: This example includes a description of how peptides (singly or in combination) were screened for T cell reactivity in the donor population.
The T cell reactivity to peptides disclosed herein was determined either by measuring T cell proliferation of T cell lines specific to the allergens investigated or by measuring the cytokine production of allergen-specific T cells obtained from cultured PBMCs.
TCL specific to the six allergens rproDer p 1, rproDer f 1, rDer p 2, rDer f 2, Der p 4 and Der p 7, respectively or specific to the combination of all six allergens were established from peripheral blood mononuclear cells (PBMCs) of each donor.
PBMCs were isolated from freshly drawn heparinized blood by gradient centrifugation on lymphoprep (Nycomed, Norway), washed twice and re-suspended in RPMI 1640 medium with HEPES and ultraglutamine (Cambrex, Belgium) supplemented with 5% v/v AB-serum (Cambrex, Belgium), 100 units/ml penicillin, and 0.1 mg/ml streptomycin (Sigma, St Louis, USA) (referred to as AB-medium). Isolated PBMCs were CD8 depleted by Macs magnetic depletion according to the manufacturer's instructions (Miltenyi Biotec, Bergisch Gladbach, Germany). […]
The capacity of the different peptides to stimulate allergen specific T cells is analyzed in a standard 72 h T cell proliferation assay, as described in Henmar H et al., Clin Exp Immunol 2008; […]):316-23. […]

[4] = target: T2, DPA10202-DPB10501 (Homo sapiens, UniProt P04440+P20036, A42M/A65V/A84E/F191V/F64L/G113D/G114E/K142R/L158P/M116V/M62Q/P115A/Q81R/R125K/T114A/T199I/T259P/V234M); assay: Competitive MHC class II binding assay, DPA10202-DPB10501; conditions: positive binding at cutoff 1000 nM; read-out: HLA-DPA10202-DPB10501
T2 sequence (P04440 30-258 A65V/A84E/F64L/G113D/G114E/M116V/P115A/R125K/T199I/V234M): T1 sequence (P04440 30-258) with F35L, A36V, A55E, G84D, G85E, P86A, M87V, R96K, T170I, V205M
T2 sequence (P20036 29-260 A42M/F191V/K142R/L158P/M62Q/Q81R/T114A/T259P): T1 sequence (P20036 29-260) with A14M, M34Q, Q53R, T86A, K114R, L130P, F163V, T231P
Experimental: as §1, §2

| Sequence | IC50 [1] [nM] | binding to HLA Class II allele DQA10401-DQB10402 ([2]; as shown in Table 16a) | IC50 [2] [nM] | fraction of donors with T cell response (% donor response) [3] | IC50 [4] [nM] |
| --- | --- | --- | --- | --- | --- |
| DNGYGYFAANIDLMMIEE [pep-010] | < 1000 | binds to at least the same alleles as peptide 041 | < 1000 | – | – |
| GSGSSWAFSGVAATESAYLA [pep-044] | – | – | < 1000 | – | – |
| LVGDNGVLASAIATHAKIRD [pep-110] | – | – | – | higher percentage donor response than the other peptides | < 1000 |
| LVKGQQYDIKYTWNVPKIAPK [pep-131] | – | – | – | higher percentage donor response than the other peptides | – |
